For the experiment, the target named is Amyloid-beta precursor protein (Homo sapiens) (UniProt P05067). As to the kind of experiment: Binding affinity to amyloid beta (1 to 40) (unknown origin) assessed as increase in fluorescence after 3 hrs by UV-spectra analysis.
Chain of Amyloid-beta precursor protein (Homo sapiens) (P05067 whole entry): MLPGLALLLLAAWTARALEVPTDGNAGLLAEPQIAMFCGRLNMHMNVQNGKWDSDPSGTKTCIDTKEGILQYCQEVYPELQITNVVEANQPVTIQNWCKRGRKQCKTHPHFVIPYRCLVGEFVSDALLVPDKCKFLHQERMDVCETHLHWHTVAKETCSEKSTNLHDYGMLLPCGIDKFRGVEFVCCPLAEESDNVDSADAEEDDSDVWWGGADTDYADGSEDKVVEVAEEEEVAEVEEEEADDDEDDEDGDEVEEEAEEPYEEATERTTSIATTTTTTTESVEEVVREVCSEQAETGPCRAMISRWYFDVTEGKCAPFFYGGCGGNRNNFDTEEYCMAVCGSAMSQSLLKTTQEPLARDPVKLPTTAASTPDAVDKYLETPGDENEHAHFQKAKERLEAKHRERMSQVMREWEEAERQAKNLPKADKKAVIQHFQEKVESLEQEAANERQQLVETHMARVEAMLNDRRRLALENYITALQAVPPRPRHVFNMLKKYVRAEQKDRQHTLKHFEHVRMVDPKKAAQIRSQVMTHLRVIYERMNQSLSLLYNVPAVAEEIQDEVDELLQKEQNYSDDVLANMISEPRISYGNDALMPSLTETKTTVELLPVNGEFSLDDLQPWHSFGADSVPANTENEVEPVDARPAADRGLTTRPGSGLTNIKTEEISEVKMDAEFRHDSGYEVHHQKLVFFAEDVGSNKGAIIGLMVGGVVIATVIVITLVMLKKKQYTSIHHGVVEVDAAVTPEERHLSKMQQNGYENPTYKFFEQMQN

`Cc1c(O)c(=O)ccn1-c1ccc(-c2nc3ccccc3s2)cc1`: the Activity came out at 50%.

On to `Cc1c(O)c(=O)ccn1-c1ccc(-c2nc3ccccc3o2)cc1`, for which the Activity is 3%.

These data come from ChEMBL document CHEMBL3603799, “3-Hydroxy-4-pyridinone derivatives designed for fluorescence studies to determine interaction with amyloid protein as well as cell permeability” (Bioorg Med Chem Lett, 2015).
